How the values were obtained:
[1] = disclosed in Maggiolo patent; cited from earlier work
[2] = solubility in propionic acid; conditions: using cyclododecene in the present process
Experimental: A reactor system consisting of a jacketed 1 inch, 10 tray glass Oldershaw column, 250 cc bottom receiver, feed pump, and recycle pump were assembled. The initial feed material consisted of 102 g. of propionic acid solvent and 18 g. of cyclododecene. 120 g. of the initial feed material were charged into the reactor system. The temperature of the jacket on the Oldershaw column was adjusted to 20° C. and a recycle flow of 50 cc/min. was established using the recycle pump. An ClearWater Tech modelM-1500 ozone generator was attached to the system. A carrier gas consisting of 20% oxygen in carbon dioxide was fed to the reactor at 2000 cc/min. The gas exit the ozone generator was measured to contain 0.80% ozone. […] At that point, the additional 18 g. of pure CDDM solution was fed to the top of the column at a rate of 00.15 cc/min. The balance between the ozone and the cyclododecene fed allowed an excess of ozone in the reactor off gas at all times.

Compound | solubility in isobutyric acid [1] [%] | ozonide solubility in propionic acid [2]
C1=CCCCCCC1 [cyclooctene] | 20 | –
C1CCCCCC2OOC(CCCC1)O2 [ozonide, cyclododecene ozonide] | – | about 27.5%
